Literature values as cited in patent US12697312B2, “Methods and devices for treatment of eyelid ptosis” (priority 2022, dated 2026).

Experiments:
dry eye = conditions: eye drops containing retinyl palmitate 0.05 percent; Kim et al. (2009)
Müllers muscle = conditions: by activating post synaptic neuromuscular junction and muscle contraction

## CCCCCCCCCCCCCCCC(=O)OC/C=C(C)/C=C/C=C(C)/C=C/C1=C(C)CCCC1(C)C [retinyl palmitate]
Dry eye
  treatment of dry eye (keratoconjunctivitis sicca): effective treatment for dry eye

## CNC[C@H](O)c1cccc(O)c1 [Phenylephrine]
Müllers muscle
  effect on the eyelid (ptosis): shown to lift the eyelid
